Test results taken from ChEMBL document CHEMBL5465560, “Selectivity Literature for EUbOPEN Chemogenomic Library” (2024).

Legend:
[1] = target: T1, Membrane-associated tyrosine- and threonine-specific cdc2-inhibitory kinase (Homo sapiens) (UniProt Q99640); assay: Selectivity interaction (KinomeScan (DiscoverX)) EUB0000045b PKMYT1
T1 sequence (whole entry): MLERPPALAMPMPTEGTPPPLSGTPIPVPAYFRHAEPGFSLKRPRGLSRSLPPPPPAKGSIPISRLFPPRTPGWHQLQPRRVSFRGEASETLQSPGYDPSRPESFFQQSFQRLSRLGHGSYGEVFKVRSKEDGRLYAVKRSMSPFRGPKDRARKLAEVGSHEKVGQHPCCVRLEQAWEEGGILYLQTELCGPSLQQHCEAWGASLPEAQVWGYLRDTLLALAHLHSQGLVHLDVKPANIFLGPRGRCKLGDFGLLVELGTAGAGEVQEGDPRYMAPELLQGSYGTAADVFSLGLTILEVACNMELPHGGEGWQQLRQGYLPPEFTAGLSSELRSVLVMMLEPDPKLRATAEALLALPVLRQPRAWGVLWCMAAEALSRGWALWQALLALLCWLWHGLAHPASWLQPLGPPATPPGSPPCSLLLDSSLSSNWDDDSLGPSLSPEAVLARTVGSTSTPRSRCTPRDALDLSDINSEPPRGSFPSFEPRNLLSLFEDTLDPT

[2] = target: Serine/threonine-protein kinase Nek7 (Homo sapiens) (UniProt Q8TDX7); assay: Selectivity interaction (KinomeScan (DiscoverX)) EUB0001079a NEK7; conditions: at 1 µM
Serine/threonine-protein kinase Nek7 (Homo sapiens), sequence (Q8TDX7 whole entry, looked up): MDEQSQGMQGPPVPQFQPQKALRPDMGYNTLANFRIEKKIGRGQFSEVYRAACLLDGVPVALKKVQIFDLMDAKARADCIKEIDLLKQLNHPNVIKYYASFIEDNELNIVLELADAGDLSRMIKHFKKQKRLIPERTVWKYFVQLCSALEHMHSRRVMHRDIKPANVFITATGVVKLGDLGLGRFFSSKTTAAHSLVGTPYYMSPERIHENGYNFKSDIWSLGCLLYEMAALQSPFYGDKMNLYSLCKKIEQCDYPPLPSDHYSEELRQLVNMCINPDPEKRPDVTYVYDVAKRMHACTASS

[3] = target: T2, Ephrin type-B receptor 2 (Homo sapiens) (UniProt P29323); assay: Selectivity interaction (Kinase panel (Z-LYTE Assay)) EUB0001632a EPHB2; conditions: at 10 µM
T2 sequence (whole entry): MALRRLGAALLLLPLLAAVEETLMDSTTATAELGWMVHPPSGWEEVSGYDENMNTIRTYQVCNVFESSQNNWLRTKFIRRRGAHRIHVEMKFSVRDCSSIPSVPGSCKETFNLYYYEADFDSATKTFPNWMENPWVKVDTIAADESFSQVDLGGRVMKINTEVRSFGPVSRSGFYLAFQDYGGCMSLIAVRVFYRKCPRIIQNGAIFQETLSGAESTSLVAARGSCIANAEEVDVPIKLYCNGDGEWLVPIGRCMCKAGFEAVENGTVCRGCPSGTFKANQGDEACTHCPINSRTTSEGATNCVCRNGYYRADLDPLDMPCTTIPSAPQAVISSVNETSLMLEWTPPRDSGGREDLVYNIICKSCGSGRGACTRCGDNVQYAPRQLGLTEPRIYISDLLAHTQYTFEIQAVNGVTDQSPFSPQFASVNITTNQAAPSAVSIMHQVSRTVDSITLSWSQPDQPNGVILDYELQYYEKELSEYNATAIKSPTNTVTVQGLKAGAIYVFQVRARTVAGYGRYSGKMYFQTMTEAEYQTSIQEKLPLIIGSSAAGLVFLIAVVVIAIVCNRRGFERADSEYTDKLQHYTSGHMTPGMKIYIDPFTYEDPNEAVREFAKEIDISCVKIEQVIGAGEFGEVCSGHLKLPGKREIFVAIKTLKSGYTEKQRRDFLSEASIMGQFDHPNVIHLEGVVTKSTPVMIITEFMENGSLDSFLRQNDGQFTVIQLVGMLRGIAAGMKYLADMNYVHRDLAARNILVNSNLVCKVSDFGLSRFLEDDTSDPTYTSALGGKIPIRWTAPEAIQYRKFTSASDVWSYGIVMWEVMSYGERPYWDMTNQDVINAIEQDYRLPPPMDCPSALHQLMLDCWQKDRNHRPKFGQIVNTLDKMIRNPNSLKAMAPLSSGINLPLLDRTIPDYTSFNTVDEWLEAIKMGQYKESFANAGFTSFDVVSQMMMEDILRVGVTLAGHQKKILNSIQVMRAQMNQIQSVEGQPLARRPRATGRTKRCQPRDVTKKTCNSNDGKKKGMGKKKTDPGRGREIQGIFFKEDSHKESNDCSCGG

[4] = target: STE20/SPS1-related proline-alanine-rich protein kinase (Homo sapiens) (UniProt Q9UEW8); assay: Selectivity interaction (LanthaScreen Eu Kinase Binding Assay) EUB0001632a STK39; conditions: at 10 µM
[5] = target: T3, cGMP-dependent protein kinase 1 (Homo sapiens) (UniProt Q13976); assay: Selectivity interaction (Upstate Kinase Profiler service (Millipore)) EUB0000056c PRKG1; conditions: at 1 µM
T3 sequence (whole entry): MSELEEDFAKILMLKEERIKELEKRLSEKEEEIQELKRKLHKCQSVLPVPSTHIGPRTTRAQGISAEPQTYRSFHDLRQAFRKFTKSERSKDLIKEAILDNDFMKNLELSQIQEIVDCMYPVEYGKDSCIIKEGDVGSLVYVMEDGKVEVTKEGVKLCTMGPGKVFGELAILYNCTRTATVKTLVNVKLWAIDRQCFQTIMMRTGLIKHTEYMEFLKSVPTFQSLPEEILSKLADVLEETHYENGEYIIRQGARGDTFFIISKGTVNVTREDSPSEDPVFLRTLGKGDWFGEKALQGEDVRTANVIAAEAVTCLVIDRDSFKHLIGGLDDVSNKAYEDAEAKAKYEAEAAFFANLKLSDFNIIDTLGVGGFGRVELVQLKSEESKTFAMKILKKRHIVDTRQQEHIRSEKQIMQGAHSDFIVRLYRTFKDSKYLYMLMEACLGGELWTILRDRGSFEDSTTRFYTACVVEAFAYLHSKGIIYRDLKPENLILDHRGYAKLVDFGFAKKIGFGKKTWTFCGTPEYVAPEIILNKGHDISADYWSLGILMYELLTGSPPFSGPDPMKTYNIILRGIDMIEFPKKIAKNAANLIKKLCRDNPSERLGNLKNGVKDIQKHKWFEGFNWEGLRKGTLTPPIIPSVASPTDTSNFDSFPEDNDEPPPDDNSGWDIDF

[6] = target: 5'-AMP-activated protein kinase catalytic subunit alpha-2 (Homo sapiens) (UniProt P54646); conditions: at 10 µM
5'-AMP-activated protein kinase catalytic subunit alpha-2 (Homo sapiens), sequence (P54646 whole entry, looked up): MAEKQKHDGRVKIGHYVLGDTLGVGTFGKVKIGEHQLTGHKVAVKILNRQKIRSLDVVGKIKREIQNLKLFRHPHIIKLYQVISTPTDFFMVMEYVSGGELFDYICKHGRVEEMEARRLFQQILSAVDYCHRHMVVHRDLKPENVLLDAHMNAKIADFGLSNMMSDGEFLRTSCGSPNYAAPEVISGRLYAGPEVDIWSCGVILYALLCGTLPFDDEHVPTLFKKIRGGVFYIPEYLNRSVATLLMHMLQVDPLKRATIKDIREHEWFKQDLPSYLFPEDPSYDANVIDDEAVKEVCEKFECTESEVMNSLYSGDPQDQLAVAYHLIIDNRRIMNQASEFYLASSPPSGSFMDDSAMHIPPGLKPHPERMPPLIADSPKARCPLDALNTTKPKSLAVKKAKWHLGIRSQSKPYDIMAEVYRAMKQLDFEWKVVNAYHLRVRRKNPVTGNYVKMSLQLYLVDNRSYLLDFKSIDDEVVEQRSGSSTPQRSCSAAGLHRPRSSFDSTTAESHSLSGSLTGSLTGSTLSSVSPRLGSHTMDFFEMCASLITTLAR

C=CC(=O)Nc1cc(-n2c(=O)ccc3cnc4ccc(-c5ccc(NS(C)(=O)=O)cc5)cc4c32)ccc1C
% of control ([1]; at 1 µM): 77% | % of control ([1]; at 10 µM): 100%

Nc1cnc(N2CCc3cc(S(=O)(=O)Nc4c(F)cc(Cl)cc4F)cc(N4CCCC4=O)c32)nc1 [TP-020n]
% of control [2]: 96%

Cn1cc(-n2cnc3c(NCc4nc5cc(Cl)c(Cl)cc5[nH]4)nc(N4CCOCC4)nc32)cn1
% of control [3]: 1.86% | % of inhibition [4]: -29.3%

Cc1ccc(-c2ccc3c(ccc4sc5c(c43)NC[C@@H](C)NC5=O)n2)cn1
% of inhibition [5]: 3%

CCN(CC)CCCCNc1ncc2cc(-c3cc(OC)cc(OC)c3)c(NC(=O)NC(C)(C)C)nc2n1
% of control [6]: 100%
